Columns and labels:
[1] = dogs, 20 mg/kg oral, measured as hydrolyzed carbapenem compound (A)
Description: (§1) The compound of the present invention (compound of Example 6, 20 mglkg) was orally administered to dogs (3 per group) and plasma hydrolyzed carbapenem compound (A) concentration at 0.25, 0.5, 1.0, 1.5, 2.0, 3.0, 4.0 and 6.0 hours later was measured by a paper disc method using test bacteria Escherichia coli NIHJ and nutrient agar medium (Difco).

[2] = dogs, 20 mg/kg oral, measured as hydrolyzed carbapenem compound (A); remark: listed apart in the source
Description: as §1, with “mg/kg)” for “mglkg)”, “urinary” for “plasma”, “0-3, 3-6” for “0.25, 0.5, 1.0, 1.5, 2.0, 3.0, 4.0”, “6-24” for “6.0”, “(Difco). The urinary recovery percentage was determined.” for “(Difco).”

SMILES: Cc1oc(=O)oc1CN1C[C@@H](SC2=C(C(=O)OCOC(=O)C(C)(C)C)N3C(=O)[C@H]([C@@H](C)O)[C@H]3[C@H]2C)C[C@H]1C(=O)N(C)C.Cl [Example 6, Pivaloyloxymethyl (1R,5S,6S)-2-{(3S,5S)-[5-N,N-dimethylaminocarbonyl-1-(5-methyl-2-oxo-1,3-dioxolen-4-yl)methyl]pyrrolidin-3-ylthio}-6-[(1R)-1-hydroxyethyl]-1-methylcarbapen-2-em-3-carboxylate hydrochloride]
- concentration in plasma (μg/ml) 0.25 hr ([1]; 0.25 hr): 5.06 µg/mL
- concentration in plasma (μg/ml) 0.5 hr ([1]; 0.5 hr): 6.56 µg/mL
- concentration in plasma (μg/ml) 1.0 hr ([1]; 1.0 hr): 7.60 µg/mL
- concentration in plasma (μg/ml) 1.5 hr ([1]; 1.5 hr): 7.67 µg/mL
- concentration in plasma (μg/ml) 2.0 hr ([1]; 2.0 hr): 5.92 µg/mL
- concentration in plasma (μg/ml) 3.0 hr ([1]; 3.0 hr): 3.68 µg/mL
- concentration in plasma (μg/ml) 4.0 hr ([1]; 4.0 hr): 1.92 µg/mL
- concentration in plasma (μg/ml) 6.0 hr ([1]; 6.0 hr): 0.43 µg/mL
- urinary recovery (%) 0-3 hr ([2]; 0-3 hr): 10.3%
- urinary recovery (%) 0-24 hr ([2]; 0-24 hr): 13.0%
- urinary recovery (%) 3-6 hr ([2]; 3-6 hr): 2.4%
- urinary recovery (%) 6-24 hr ([2]; 6-24 hr): 0.3%
